How the values were obtained:
[1] = biological target: Serine/threonine-protein kinase Sgk1 (Homo sapiens) (UniProt O00141); assay: Inhibition of SGK1 (unknown origin) at 1 uM by mobility shift microfluidics platform based assay relative to control
[2] = biological target: Serine/threonine-protein kinase PAK 2 (Homo sapiens) (UniProt Q13177); assay: Inhibition of PAK2 (unknown origin) at 1 uM by mobility shift microfluidics platform based assay relative to control
[3] = biological target: TRAF2 and NCK-interacting protein kinase (Homo sapiens) (UniProt Q9UKE5); assay: Inhibition of TNIK (unknown origin) at 1 uM by mobility shift microfluidics platform based assay relative to control
[4] = biological target: STE20-like serine/threonine-protein kinase (Homo sapiens) (UniProt Q9H2G2); assay: Inhibition of SLK (unknown origin) at 1 uM by mobility shift microfluidics platform based assay relative to control
[5] = biological target: Ribosomal protein S6 kinase beta-2 (Homo sapiens) (UniProt Q9UBS0); assay: Inhibition of P70S6K2 (unknown origin) at 1 uM by mobility shift microfluidics platform based assay relative to control
[6] = biological target: Phosphorylase b kinase gamma catalytic chain, liver/testis isoform (Homo sapiens) (UniProt P15735); assay: Inhibition of PHK-gamma2 (unknown origin) at 1 uM by mobility shift microfluidics platform based assay relative to control
[7] = biological target: Serine/threonine-protein kinase MARK2 (Homo sapiens) (UniProt Q7KZI7); assay: Inhibition of PAR-1B-alpha (unknown origin) at 1 uM by mobility shift microfluidics platform based assay relative to control
[8] = biological target: Serine/threonine-protein kinase Chk1 (Homo sapiens) (UniProt O14757); assay: Inhibition of CHEK1 (unknown origin) at 1 uM by mobility shift microfluidics platform based assay relative to control
[9] = biological target: Protein-tyrosine kinase 6 (Homo sapiens) (UniProt Q13882); assay: Inhibition of BRK (unknown origin) at 1 uM by mobility shift microfluidics platform based assay relative to control
[10] = biological target: Mitogen-activated protein kinase 14 (Homo sapiens) (UniProt Q16539); assay: Inhibition of P38-alpha (unknown origin) at 1 uM by mobility shift microfluidics platform based assay relative to control
[11] = biological target: Serine/threonine-protein kinase Nek1 (Homo sapiens) (UniProt Q96PY6); assay: Inhibition of NEK1 (unknown origin) at 1 uM by mobility shift microfluidics platform based assay relative to control
[12] = biological target: cAMP-dependent protein kinase catalytic subunit alpha (Homo sapiens) (UniProt P17612); assay: Inhibition of PRKACA (unknown origin) at 1 uM by mobility shift microfluidics platform based assay relative to control
[13] = biological target: Serine/threonine-protein kinase D2 (Homo sapiens) (UniProt Q9BZL6); assay: Inhibition of PRKD2 (unknown origin) at 1 uM by mobility shift microfluidics platform based assay relative to control
[14] = biological target: Cyclin-dependent kinase 1 (Homo sapiens) (UniProt P06493); assay: Inhibition of CDK1 (unknown origin) at 1 uM by mobility shift microfluidics platform based assay relative to control
[15] = biological target: Fibroblast growth factor receptor 2 (Homo sapiens) (UniProt P21802); assay: Inhibition of FGFR2 (unknown origin) at 1 uM by mobility shift microfluidics platform based assay relative to control
[16] = biological target: Tyrosine-protein kinase ABL2 (Homo sapiens) (UniProt P42684); assay: Inhibition of ARG (unknown origin) at 1 uM by mobility shift microfluidics platform based assay relative to control
[17] = biological target: Ephrin type-A receptor 4 (Homo sapiens) (UniProt P54764); assay: Inhibition of EPH-A4 (unknown origin) at 1 uM by mobility shift microfluidics platform based assay relative to control
[18] = biological target: SRSF protein kinase 2 (Homo sapiens) (UniProt P78362); assay: Inhibition of SRPK2 (unknown origin) at 1 uM by mobility shift microfluidics platform based assay relative to control
[19] = biological target: Testis-specific serine/threonine-protein kinase 2 (Homo sapiens) (UniProt Q96PF2); assay: Inhibition of TSSK2 (unknown origin) at 1 uM by mobility shift microfluidics platform based assay relative to control
Chain of Testis-specific serine/threonine-protein kinase 2 (Homo sapiens) (Q96PF2 whole entry): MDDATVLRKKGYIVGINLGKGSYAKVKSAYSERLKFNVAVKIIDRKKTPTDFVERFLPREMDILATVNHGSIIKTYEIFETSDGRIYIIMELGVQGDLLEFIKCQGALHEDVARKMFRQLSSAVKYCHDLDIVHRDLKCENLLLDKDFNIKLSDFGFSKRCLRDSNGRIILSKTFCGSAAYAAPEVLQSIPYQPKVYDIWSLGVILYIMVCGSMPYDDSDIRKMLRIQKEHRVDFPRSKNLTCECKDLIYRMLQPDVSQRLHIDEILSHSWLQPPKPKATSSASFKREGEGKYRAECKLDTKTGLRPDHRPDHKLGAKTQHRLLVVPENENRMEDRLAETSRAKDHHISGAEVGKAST

[20] = biological target: Serine/threonine-protein kinase 16 (Homo sapiens) (UniProt O75716); assay: Inhibition of STK16 (unknown origin) at 1 uM by mobility shift microfluidics platform based assay relative to control
Chain of Serine/threonine-protein kinase 16 (Homo sapiens) (O75716 whole entry): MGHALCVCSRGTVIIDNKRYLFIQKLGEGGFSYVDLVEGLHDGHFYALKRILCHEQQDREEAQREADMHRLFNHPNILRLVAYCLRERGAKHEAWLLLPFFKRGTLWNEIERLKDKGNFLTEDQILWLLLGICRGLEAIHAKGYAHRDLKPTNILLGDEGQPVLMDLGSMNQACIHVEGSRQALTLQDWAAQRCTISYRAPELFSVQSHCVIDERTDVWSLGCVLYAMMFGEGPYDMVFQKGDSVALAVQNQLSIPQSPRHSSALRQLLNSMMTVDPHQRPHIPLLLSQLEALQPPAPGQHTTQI

[21] = biological target: Serine/threonine-protein kinase Nek6 (Homo sapiens) (UniProt Q9HC98); assay: Inhibition of NEK6 (unknown origin) at 1 uM by mobility shift microfluidics platform based assay relative to control
Chain of Serine/threonine-protein kinase Nek6 (Homo sapiens) (Q9HC98 whole entry): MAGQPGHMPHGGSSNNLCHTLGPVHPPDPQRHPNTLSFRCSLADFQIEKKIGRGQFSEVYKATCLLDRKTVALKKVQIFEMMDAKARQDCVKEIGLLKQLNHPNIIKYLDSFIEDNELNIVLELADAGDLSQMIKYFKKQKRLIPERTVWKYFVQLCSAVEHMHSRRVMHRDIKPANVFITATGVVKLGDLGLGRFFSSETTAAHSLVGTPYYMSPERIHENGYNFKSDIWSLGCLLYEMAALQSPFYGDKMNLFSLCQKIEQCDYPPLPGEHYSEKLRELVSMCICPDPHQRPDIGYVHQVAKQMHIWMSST

[22] = biological target: Serine/threonine-protein kinase PAK 3 (Homo sapiens) (UniProt O75914); assay: Inhibition of PAK3 (unknown origin) at 1 uM by mobility shift microfluidics platform based assay relative to control
[23] = biological target: Tyrosine-protein kinase JAK1 (Homo sapiens) (UniProt P23458); assay: Inhibition of JAK1 (unknown origin) at 1 uM by mobility shift microfluidics platform based assay relative to control
Chain of Tyrosine-protein kinase JAK1 (Homo sapiens) (P23458 whole entry, the tested form may be a part): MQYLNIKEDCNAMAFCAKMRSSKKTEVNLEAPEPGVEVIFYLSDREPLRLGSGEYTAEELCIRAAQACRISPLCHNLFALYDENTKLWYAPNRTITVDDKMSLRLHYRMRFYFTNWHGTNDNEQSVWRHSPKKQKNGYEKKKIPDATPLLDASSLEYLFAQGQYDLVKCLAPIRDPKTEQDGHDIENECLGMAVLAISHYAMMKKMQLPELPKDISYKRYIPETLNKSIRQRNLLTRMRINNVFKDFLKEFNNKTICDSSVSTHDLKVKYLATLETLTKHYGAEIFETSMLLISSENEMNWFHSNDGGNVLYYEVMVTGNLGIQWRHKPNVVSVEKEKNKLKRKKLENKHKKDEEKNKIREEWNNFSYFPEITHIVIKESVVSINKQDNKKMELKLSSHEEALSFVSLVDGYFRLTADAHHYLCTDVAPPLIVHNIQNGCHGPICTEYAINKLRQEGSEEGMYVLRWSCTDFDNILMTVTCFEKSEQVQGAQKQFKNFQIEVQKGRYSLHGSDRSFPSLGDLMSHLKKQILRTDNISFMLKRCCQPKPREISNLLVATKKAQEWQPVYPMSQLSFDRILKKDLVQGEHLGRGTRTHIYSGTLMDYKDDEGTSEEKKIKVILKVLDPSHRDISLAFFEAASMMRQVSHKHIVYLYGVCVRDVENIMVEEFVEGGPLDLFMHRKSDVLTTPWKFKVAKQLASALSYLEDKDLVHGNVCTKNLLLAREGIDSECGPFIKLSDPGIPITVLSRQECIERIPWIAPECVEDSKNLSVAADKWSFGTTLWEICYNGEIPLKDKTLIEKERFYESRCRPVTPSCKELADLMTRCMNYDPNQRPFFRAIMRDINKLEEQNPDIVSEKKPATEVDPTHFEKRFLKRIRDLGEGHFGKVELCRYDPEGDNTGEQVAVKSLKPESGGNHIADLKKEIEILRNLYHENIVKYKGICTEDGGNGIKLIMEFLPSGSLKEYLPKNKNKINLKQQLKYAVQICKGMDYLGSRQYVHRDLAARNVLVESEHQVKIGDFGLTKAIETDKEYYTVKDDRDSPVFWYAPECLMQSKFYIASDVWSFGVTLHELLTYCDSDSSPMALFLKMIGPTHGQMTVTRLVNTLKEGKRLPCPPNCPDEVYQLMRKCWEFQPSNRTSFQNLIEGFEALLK

[24] = biological target: PAS domain-containing serine/threonine-protein kinase (Homo sapiens) (UniProt Q96RG2); assay: Inhibition of PASK (unknown origin) at 1 uM by mobility shift microfluidics platform based assay relative to control
[25] = biological target: MAP kinase-interacting serine/threonine-protein kinase 1 (Homo sapiens) (UniProt Q9BUB5); assay: Inhibition of MKNK1 (unknown origin) at 1 uM by mobility shift microfluidics platform based assay relative to control
[26] = biological target: Cyclin-T1/Cyclin-dependent-like kinase 5 (Homo sapiens) (UniProt Q00535+O60563); assay: Inhibition of CDK5/cyclin T1 (unknown origin) at 1 uM by mobility shift microfluidics platform based assay relative to control; assay type: protein-complex assay
[27] = biological target: Mitogen-activated protein kinase kinase kinase 7 (Homo sapiens) (UniProt O43318); assay: Inhibition of TAK1 (unknown origin) at 1 uM by mobility shift microfluidics platform based assay relative to control
[28] = biological target: Ribosomal protein S6 kinase alpha-6 (Homo sapiens) (UniProt Q9UK32); assay: Inhibition of RSK4 (unknown origin) at 1 uM by mobility shift microfluidics platform based assay relative to control
[29] = biological target: Tyrosine-protein kinase ZAP-70 (Homo sapiens) (UniProt P43403); assay: Inhibition of ZAP70 (unknown origin) at 1 uM by mobility shift microfluidics platform based assay relative to control
Chain of Tyrosine-protein kinase ZAP-70 (Homo sapiens) (P43403 whole entry): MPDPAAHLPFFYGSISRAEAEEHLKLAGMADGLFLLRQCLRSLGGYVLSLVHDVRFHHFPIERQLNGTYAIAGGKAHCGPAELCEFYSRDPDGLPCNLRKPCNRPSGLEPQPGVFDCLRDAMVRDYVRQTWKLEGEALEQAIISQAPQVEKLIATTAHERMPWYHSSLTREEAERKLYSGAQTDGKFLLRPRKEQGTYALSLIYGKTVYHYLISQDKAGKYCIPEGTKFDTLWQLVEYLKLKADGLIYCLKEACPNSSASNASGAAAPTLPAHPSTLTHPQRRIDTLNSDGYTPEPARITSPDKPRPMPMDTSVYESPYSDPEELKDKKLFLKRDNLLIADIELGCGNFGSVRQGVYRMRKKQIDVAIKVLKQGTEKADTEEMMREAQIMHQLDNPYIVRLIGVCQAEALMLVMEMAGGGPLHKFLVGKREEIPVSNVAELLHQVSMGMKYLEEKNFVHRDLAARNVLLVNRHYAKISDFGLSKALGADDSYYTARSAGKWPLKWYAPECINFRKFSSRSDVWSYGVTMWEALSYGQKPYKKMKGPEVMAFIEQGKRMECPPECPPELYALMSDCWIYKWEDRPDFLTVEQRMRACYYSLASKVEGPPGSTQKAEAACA

[30] = biological target: Serine/threonine-protein kinase PAK 6 (Homo sapiens) (UniProt Q9NQU5); assay: Inhibition of PAK6 (unknown origin) at 1 uM by mobility shift microfluidics platform based assay relative to control
[31] = biological target: Fibroblast growth factor receptor 3 (Homo sapiens) (UniProt P22607); assay: Inhibition of FGFR3 (unknown origin) at 1 uM by mobility shift microfluidics platform based assay relative to control
[32] = biological target: Proto-oncogene tyrosine-protein kinase ROS (Homo sapiens) (UniProt P08922); assay: Inhibition of ROS (unknown origin) at 1 uM by mobility shift microfluidics platform based assay relative to control
Chain of Proto-oncogene tyrosine-protein kinase ROS (Homo sapiens) (P08922 whole entry): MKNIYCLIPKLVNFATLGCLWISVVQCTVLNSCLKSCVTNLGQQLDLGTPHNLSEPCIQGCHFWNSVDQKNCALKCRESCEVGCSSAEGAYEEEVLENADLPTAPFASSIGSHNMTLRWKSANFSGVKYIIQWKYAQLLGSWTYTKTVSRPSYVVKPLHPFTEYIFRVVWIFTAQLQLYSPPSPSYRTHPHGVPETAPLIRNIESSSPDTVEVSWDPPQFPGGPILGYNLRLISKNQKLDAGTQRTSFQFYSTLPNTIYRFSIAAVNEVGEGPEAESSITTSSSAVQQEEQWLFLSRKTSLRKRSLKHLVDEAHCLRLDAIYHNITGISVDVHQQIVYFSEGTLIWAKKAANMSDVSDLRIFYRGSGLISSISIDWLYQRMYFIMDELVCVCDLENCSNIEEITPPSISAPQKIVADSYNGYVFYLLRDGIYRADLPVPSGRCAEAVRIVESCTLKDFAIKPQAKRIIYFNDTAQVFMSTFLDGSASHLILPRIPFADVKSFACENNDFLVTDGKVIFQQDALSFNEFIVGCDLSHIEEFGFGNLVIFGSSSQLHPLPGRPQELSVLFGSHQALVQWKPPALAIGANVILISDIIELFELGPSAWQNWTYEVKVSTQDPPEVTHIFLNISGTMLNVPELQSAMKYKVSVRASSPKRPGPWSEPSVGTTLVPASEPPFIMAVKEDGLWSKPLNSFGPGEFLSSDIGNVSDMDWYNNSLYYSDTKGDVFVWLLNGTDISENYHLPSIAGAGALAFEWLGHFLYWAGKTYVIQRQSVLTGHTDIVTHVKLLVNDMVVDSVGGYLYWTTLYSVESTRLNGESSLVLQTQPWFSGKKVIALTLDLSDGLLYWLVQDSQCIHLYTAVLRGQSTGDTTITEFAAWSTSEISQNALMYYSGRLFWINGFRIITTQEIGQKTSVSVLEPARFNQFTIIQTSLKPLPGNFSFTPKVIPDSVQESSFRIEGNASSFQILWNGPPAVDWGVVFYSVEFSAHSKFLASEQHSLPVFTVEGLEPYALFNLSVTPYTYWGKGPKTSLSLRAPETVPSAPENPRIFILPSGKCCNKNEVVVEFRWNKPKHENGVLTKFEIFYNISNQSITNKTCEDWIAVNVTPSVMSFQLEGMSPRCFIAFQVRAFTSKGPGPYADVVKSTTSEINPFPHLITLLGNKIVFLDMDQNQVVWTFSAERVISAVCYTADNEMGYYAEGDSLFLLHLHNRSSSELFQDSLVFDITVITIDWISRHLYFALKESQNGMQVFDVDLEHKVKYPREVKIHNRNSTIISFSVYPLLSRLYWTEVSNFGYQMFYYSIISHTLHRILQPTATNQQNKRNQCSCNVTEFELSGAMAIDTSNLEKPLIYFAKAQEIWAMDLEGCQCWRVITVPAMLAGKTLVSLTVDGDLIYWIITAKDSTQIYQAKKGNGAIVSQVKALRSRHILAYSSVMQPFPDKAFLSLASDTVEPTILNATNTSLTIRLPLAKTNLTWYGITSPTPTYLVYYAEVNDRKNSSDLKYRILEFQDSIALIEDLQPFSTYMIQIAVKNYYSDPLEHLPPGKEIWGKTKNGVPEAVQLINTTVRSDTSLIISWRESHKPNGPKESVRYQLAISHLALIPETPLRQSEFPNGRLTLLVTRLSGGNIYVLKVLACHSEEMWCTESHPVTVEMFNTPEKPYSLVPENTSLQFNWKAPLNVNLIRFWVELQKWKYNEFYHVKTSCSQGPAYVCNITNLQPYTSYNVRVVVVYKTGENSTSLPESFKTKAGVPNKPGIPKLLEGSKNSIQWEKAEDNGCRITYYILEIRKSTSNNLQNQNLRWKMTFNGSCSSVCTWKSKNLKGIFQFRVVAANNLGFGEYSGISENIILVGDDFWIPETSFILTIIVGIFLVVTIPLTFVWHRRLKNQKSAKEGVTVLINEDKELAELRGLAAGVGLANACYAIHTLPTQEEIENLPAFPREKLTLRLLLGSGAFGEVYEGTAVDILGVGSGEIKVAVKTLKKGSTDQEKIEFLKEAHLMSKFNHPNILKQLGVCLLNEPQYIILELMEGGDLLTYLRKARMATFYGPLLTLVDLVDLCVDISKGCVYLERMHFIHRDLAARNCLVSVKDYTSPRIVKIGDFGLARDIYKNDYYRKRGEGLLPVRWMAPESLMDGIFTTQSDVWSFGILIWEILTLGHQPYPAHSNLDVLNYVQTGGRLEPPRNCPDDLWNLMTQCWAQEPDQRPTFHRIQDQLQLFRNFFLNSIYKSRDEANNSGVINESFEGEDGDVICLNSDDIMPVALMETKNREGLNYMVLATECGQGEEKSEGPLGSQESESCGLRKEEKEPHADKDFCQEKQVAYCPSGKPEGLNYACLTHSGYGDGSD

[33] = biological target: Mitogen-activated protein kinase 1 (Homo sapiens) (UniProt P28482); assay: Inhibition of MAPK1 (unknown origin) at 1 uM by mobility shift microfluidics platform based assay relative to control

Structure (SMILES) | inhibition [1] | inhibition [2] | inhibition [3] | inhibition [4] | inhibition [5] | inhibition [6] | inhibition [7] | inhibition [8] | inhibition [9] | inhibition [10] | inhibition [11] | inhibition [12] | inhibition [13] | inhibition [14] | inhibition [15] | inhibition [16] | inhibition [17] | inhibition [18] | inhibition [19] | inhibition [20] | other results
CC(C)n1nc(C#Cc2cccc(NC(=O)c3cccc(C(F)(F)F)c3)c2)c2c(N)ncnc21 | -1% | 1% | 71% | 92% | 5% | -8% | 0% | -1% | 97% | 70% | -1% | 2% | 1% | 6% | 99% | 99% | 99% | -1% | -10% | 8% | inhibition [21]: 0%; inhibition [22]: 2%; inhibition [23]: 97%; inhibition [24]: -4%; inhibition [25]: 0%; inhibition [26]: 5%; inhibition [27]: 62%; inhibition [28]: 2%; inhibition [29]: 3%; inhibition [30]: -1%; inhibition [31]: 52%; inhibition [32]: 18%; inhibition [33]: 0%
CC(C)n1nc(C#Cc2cccc3cc(-c4cccc(C(F)(F)F)c4)ncc23)c2c(N)ncnc21 | 0% | -2% | 4% | 18% | 3% | 4% | 0% | -1% | 86% | 15% | -5% | 4% | 2% | 0% | 96% | 94% | 95% | -1% | 1% | 2% | inhibition [21]: -5%; inhibition [22]: 1%; inhibition [23]: -3%; inhibition [24]: 1%; inhibition [25]: 2%; inhibition [26]: -2%; inhibition [27]: 5%; inhibition [28]: 0%; inhibition [29]: 4%; inhibition [30]: 3%; inhibition [31]: 34%; inhibition [32]: 5%; inhibition [33]: 2%
